The target in the experiment is T1, PMCT (Homo sapiens, UniProt Q86YT5).
T1 construct: expressed in transfected cells; host or cells: HEK293T cells transfected with pcDNA3.1(+)-SLC13A5 using PEI
The experiment can be described thus: PMCT inhibition, citrate transport assay of whole HEK293T cells. Type of experiment: cell-based. The settings on record: for inhibition at 2.8 µM / inhibition at 28 µM / inhibition at 280 µM / inhibition at 140 µM: HEK-293T; for inhibition at 2.8 µM: read-out: PMCT Inhibition, Inhibitor Concentration 2.8 μM, HEK293T cells; for inhibition at 28 µM: read-out: PMCT Inhibition, Inhibitor Concentration 28 μM, HEK293T cells; for inhibition at 280 µM: read-out: PMCT Inhibition, Inhibitor Concentration 280 μM, HEK293T cells; for dose-dependence of PMCT inhibition / PMCT Inhibition: HEK293T cells; for dose-dependence of PMCT inhibition: even at moderate concentrations (FIG. 1); for inhibition at 140 µM: read-out: PMCT Inhibition, Inhibitor Concentration 140 μM, HEK293T cells; for PMCT Inhibition: Inhibitor Concentration 280 μM, 280 µM.

The values that follow come from patent US11814392B2, “Chromenopyridine-based compounds and methods of making and use thereof” (Rosalind Franklin University of Medicine and Science, priority 2020, dated 2023).

Each structure is given as a SMILES string.

T1 sequence (Q86YT5 whole entry): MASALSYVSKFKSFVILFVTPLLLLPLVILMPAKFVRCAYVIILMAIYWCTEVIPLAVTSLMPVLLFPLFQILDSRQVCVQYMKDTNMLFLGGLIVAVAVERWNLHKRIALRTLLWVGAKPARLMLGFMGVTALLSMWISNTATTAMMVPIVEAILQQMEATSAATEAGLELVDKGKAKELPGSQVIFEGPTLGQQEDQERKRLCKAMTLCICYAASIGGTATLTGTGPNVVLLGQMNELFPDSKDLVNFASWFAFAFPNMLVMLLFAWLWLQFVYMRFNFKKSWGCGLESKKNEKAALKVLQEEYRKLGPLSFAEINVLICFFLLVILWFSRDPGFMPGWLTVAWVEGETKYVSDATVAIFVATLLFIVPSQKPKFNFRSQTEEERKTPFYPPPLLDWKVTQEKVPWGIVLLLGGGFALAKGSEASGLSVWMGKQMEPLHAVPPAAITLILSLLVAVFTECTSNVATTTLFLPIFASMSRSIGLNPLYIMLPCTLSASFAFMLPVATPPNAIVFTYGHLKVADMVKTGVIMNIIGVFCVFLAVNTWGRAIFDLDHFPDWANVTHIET

Regarding `COc1ccc(SC2c3ccc(O)cc3Oc3nc(N)c(C#N)c(N)c32)cc1` (stereo not shown) [Compound 5, 2,4-Diamino-8-hydroxy-5-((4-methoxyphenyl)thio)-5H-chromeno[2,3-b]pyridine-3-carbonitrile], the inhibition at 2.8 µM is -12.8%, the inhibition at 28 µM was -4.5% and the inhibition at 280 µM is -3.2%.

With `COc1cc2c(cc1OC)C(Sc1ccc(SC)cc1)c1c(nc(N)c(C#N)c1N)O2` (stereo not shown) [Compound 6, 2,4-diamino-7,8-dimethoxy-5-((4-(methylthio)phenyl)thio)-5H-chromeno[2,3-b]pyridine-3-carbonitrile], the “dose-dependence of PMCT inhibition” value is on record as “dose-dependent inhibition”, the inhibition at 2.8 µM is 9.4%, the inhibition at 28 µM was -45.9% and the inhibition at 140 µM was 46.8%. The inhibition at 280 µM worked out at 70.2% and the “PMCT Inhibition” value came out at 87.4%.

Consider `CSc1ccc(SC2c3ccc(C)cc3Oc3nc(N)c(C#N)c(N)c32)cc1` (stereo not shown) [Compound 9, 2,4-Diamino-8-methyl-5-((4-(methylthio)phenyl)thio)-5H-chromeno[2,3-b]pyridine-3-carbonitrile], for which the inhibition at 2.8 µM was determined as 35.7%, the inhibition at 28 µM worked out at 1.8% and the inhibition at 280 µM is 35.7%.

For `CSc1ccc(SC2c3ccc(O)cc3Oc3nc(N)c(C#N)c(N)c32)cc1` (stereo not shown) [Compound 3, 2,4-Diamino-8-hydroxy-5-((4-(methylthio)phenyl)thio)-5H-chromeno[2,3-b]pyridine-3-carbonitrile], the “dose-dependence of PMCT inhibition” value was “dose-dependent inhibition”, the inhibition at 2.8 µM is 6.2%, the inhibition at 28 µM worked out at 9.9% and the inhibition at 140 µM is 28.6%. The inhibition at 280 µM came to 58.7%.

As to `COc1ccc(SC2c3c(OC)cc(OC)cc3Oc3nc(N)c(C#N)c(N)c32)cc1` (stereo not shown) [Compound 2, 2,4-diamino-6,8-dimethoxy-5-((4-methoxyphenyl)thio)-5H-chromeno[2,3-b]pyridine-3-carbonitrile], the “dose-dependence of PMCT inhibition” value was “dose-dependent inhibition”, the inhibition at 2.8 µM came to 34.7%, the inhibition at 28 µM is 24% and the inhibition at 140 µM came to 48.5%. The inhibition at 280 µM worked out at 50%.

Consider `CCN(CC)c1ccc2c(c1)Oc1nc(N)c(C#N)c(N)c1C2Sc1ccc(OC)cc1` (stereo not shown) [Compound 4, 2,4-diamino-8-(diethylamino)-5-((4-methoxyphenyl)thio)-5H-chromeno[2,3-b]pyridine-3-carbonitrile], for which the inhibition at 2.8 µM was -23.2%, the inhibition at 28 µM came out at 28.6% and the inhibition at 280 µM was -8.7%.

For `COc1ccc2c(c1)Oc1nc(N)c(C#N)c(N)c1C2Sc1ccc(O)cc1` (stereo not shown) [Compound 7, 2,4-Diamino-5-((4-hydroxyphenyl)thio)-8-methoxy-5H-chromeno[2,3-b]pyridine-3-carbonitrile], the “dose-dependence of PMCT inhibition” value was “dose-dependent inhibition”, the inhibition at 2.8 µM stood at 28%, the inhibition at 28 µM was -13.3% and the inhibition at 140 µM was 42.5%. Besides, the inhibition at 280 µM amounted to 62.9% and the “PMCT Inhibition” value worked out at 77.7%.

For `CCN(CC)c1ccc2c(c1)Oc1nc(N)c(C#N)c(N)c1C2Sc1ccc(SC)cc1` (stereo not shown) [Compound 8, 2,4-diamino-8-(diethylamino)-5-((4-(methylthio)phenyl)thio)-5H-chromeno[2,3-b]pyridine-3-carbonitrile], the inhibition at 2.8 µM was -41.5%, the inhibition at 28 µM was -1.5% and the inhibition at 280 µM turned out to be 58.4%.
